Counter-ions that a name gives are not always drawn.
System: RS4;11 leukaemia tumour line
Assay: In vitro cytotoxicity (Microculture Tetrazolium Assay, 48 hours)
Format: cell-based
Conditions: Homo sapiens, RS4;11 cells, 48 hours exposure, MTT, concentration that inhibits cell viability by 50%, read-out: IC50 (nM) MTT RS4
Procedure: The cytotoxicity studies were carried out on the RS4;11 leukaemia tumour line.
The cells are distributed onto microplates and exposed to the test compounds for 48 hours.

| Structure (SMILES) | IC50 [nM] |
| --- | --- |
| O=C(c1cc(-c2cc(Cl)ccc2C(=O)N2Cc3ccccc3C[C@H]2CN2CCOCC2)n2c1CCCC2)N(c1ccncc1)c1ccc(O)cc1 [Example 144, 3-(5-Chloro-2-{[(3S)-3-(morpholin-4-ylmethyl)-3,4-dihydroisoquinolin-2(1H)-yl]carbonyl}phenyl)-N-(4-hydroxyphenyl)-N-(pyridin-4-yl)-5,6,7,8-tetrahydroindolizine-1-carboxamide bis(hydrochloride)] | 59.9 |
| Cl.[2H]C1([2H])Oc2cc(C(=O)N3Cc4ccccc4C[C@H]3CN3CCOCC3)c(-c3cc(C(=O)N(c4ccccc4)c4ccc(O)cc4)c4n3CCCC4)cc2O1 [Example 38, N-(4-Hydroxyphenyl)-3-{2,2-dideuterio-6-[((3S)-3-(4-morpholinylmethyl)-3,4-dihydro-2(1H)-isoquinolinyl)carbonyl]-1,3-benzodioxol-5-yl}-N-phenyl-5,6,7,8-tetrahydro-1-indolizine carboxamide hydrochloride] | 61.8 |
| COc1c(F)cc(N(C(=O)c2cc(-c3cc(Cl)ccc3C(=O)N3Cc4ccccc4C[C@H]3CN3CCOCC3)n3c2CCCC3)c2ccc(O)cc2)cc1F [Example 143, 3-(5-Chloro-2-{[(3S)-3-(morpholin-4-ylmethyl)-3,4-dihydroisoquinolin-2(1H)-yl]carbonyl}phenyl)-N-(3,5-difluoro-4-methoxyphenyl)-N-(4-hydroxyphenyl)-5,6,7,8-tetrahydroindolizine-1-carboxamide hydrochloride] | 43.8 |
| Cn1ccc2cc(N(C(=O)c3cc(-c4cc5c(cc4C(=O)N4Cc6ccccc6C[C@H]4CN4CCOCC4)OCO5)n4c3CCCC4)c3ccc(O)cc3)ccc21 [Example 10, N-[4-(Hydroxy)phenyl]-N-(1-methyl-1H-indol-5-yl)-3-{6-[((3S)-3-(4-morpholinylmethyl)-3,4-dihydro-2(1H)-isoquinolinyl)carbonyl]-1,3-benzodioxol-5-yl}-5,6,7,8-tetrahydro-1-indolizine carboxamide hydrochloride] | 11 |
| O=C(c1cc(-c2cc3c(cc2C(=O)N2Cc4ccccc4C[C@H]2CN2CCS(=O)(=O)CC2)OCO3)n2c1CCCC2)N(c1ccccc1)c1ccc(O)cc1 [Example 147, 3-(6-{[(3S)-3-[(1,1-Dioxidothiomorpholin-4-yl)methyl]-3,4-dihydroisoquinolin-2(1H)-yl]carbonyl}-1,3-benzodioxol-5-yl)-N-(4-hydroxyphenyl)-N-phenyl-5,6,7,8-tetrahydroindolizine-1-carboxamide hydrochloride] | 74.2 |
| Cl.[2H]C1([2H])Oc2cc(C(=O)N3Cc4ccccc4C[C@H]3CN3CCOCC3)c(-c3cc(C(=O)N(c4ccc(O)cc4)c4ccc5c(ccn5C)c4)c4n3CCCC4)cc2O1 [Example 37, N-(4-Hydroxyphenyl)-N-(1-methyl-1H-indol-5-yl)-3-{2,2-dideuterio-6-[((3S)-3-(4-morpholinylmethyl)-3,4-dihydro-2(1H)-isoquinolinyl)carbonyl]-1,3-benzodioxol-5-yl}-5,6,7,8-tetrahydro-1-indolizine carboxamide hydrochloride] | 11.6 |
| O=C(c1cc(-c2cc3c(cc2C(=O)N2Cc4ccccc4C[C@H]2CN2CCOCC2)OCO3)n2c1CCCC2)N(c1ccccc1)c1ccc(O)cc1 [Example 1, N-(4-Hydroxyphenyl)-3-{6-[((3S)-3-(4-morpholinylmethyl)-3,4-dihydro-2(1H)-isoquinolinyl)carbonyl]-1,3-benzdioxol-5-yl}-N-phenyl-5,6,7,8-tetrahydro-1-indolizine carboxamide hydrochloride] | 60.1 |
| Cn1ccc2cc(N(C(=O)c3cc(-c4cc5c(cc4C(=O)N4Cc6ccccc6C[C@H]4CN4CCOCC4)OCO5)n4c3CCCCC4)c3ccc(O)cc3)ccc21 [Example 84, hydrochloride] | 20.6 |

— patent US9120791B2, “Indolizine compounds, a process for their preparation and pharmaceutical compositions containing them” (LES LABORATOIRES SERVIER, priority 2012, dated 2015)
